According to publication PMC12775124, “CUL4A-DDB1-DCAF10 is an N-recognin for N-terminally acetylated Src kinases” (Nature Communications, 2026):

Test system: GST-DCAF10
Experiment: Streptavidin pull-down of GST-DCAF10 with biotinylated Nt-peptides
Format: binding, human
Conditions: for Binding to GST-DCAF10 (in words) / Nt-free reduction compared to Nt-Ac: 0.5 µM GST-DCAF10, 5 µM peptide, 1 h RT, WB; for Nt-free reduction compared to Nt-Ac: mean ± s.d., n = 3 independent binding assays
Method: To confirm direct interactions between peptides and DCAF10, we performed pull-down assays using bead-bound Nt-peptide variants incubated with purified full-length GST-DCAF10 or GST as a negative control (Fig. 2m–p and Supplementary Fig. 4a).
230 of 1:100), and desalted/concentrated on C18 reversed phase stage tips as previously
MS measurements settings are stated in MS measurements and raw file
BL21(DE3) cells (Thermo Fisher Scientific,
240 agar) plate containing 100 μg/mL ampicillin and 34 μg/mL chloramphenicol, then
Terrific broth (TB) medium (24 g/L yeast extract,
243 20 g/L tryptone, glycerol 4 mL/L, 100 mL/L phosphate buffer containing 0.17 M KH2PO4
244 and 0.72 M K2HPO4) was used to prepare a 1:100 dilution of the starter culture, and OD600
At OD600 = 1, protein induction was initiated by adding 1 mM
247 day, pellets were homogenized and lysed in glycerol lysis buffer (20 mM Tris-HCl pH
Lysis was performed on ice for 30 min, followed by
250 sonication (7 × 20 sec pulses with 20 sec breaks on ice) using a Bandelin sonoplus
Lysates were centrifuged at 4°C for 1 h
253 medium culture was lysed in 20 mL of supernatant (collected in 20 × 1 mL tubes). GST
255 agarose bead; Thermo Fisher Scientific, Waltham, MA, USA). For each 1 mL of
100 μL of GST magnetic beads
257 were washed twice with 500 μL of wash buffer (125 mM Tris-HCl pH 7.4, 150 mM NaCl,
The lysis supernatant was diluted 1:1 with
259 wash buffer, and incubated with the beads on an end-over-end rotator for 1 h at 25°C.
260 After incubation, the supernatant was removed, and the beads were washed twice with
Protein elution was then performed by incubating
263 pH 7.4, 250 mM NaCl, 0.3% Triton X-100) for 30 min at 25°C on an end-over-end rotator.
265 under the same conditions. Elution fractions were pooled and concentrated by
266 centrifugation (4°C, 25 min, 4500 rpm) using a 30 kDa cut-off concentrator (Merck
267 Millipore, #UFC803008, Darmstadt, Germany). Purified proteins were analyzed by
268 colloidal Coomassie stain, WB and MS.
270 Streptavidin pull-downs with GST-DCAF10 and biotinylated peptides
271 Streptavidin magnetic beads (DynabeadsTM MyOneTM Streptavidin T1; Thermo Fisher
272 Scientific, Waltham, MA, USA) were washed twice with 500 μL of wash buffer (125 mM
273 Tris-HCl pH 7.4, 150 mM NaCl, 0.1% Triton X-100). An excess of peptides was added
274 (to ensure full occupancy of the beads) and incubated for 30 min at RT. After peptide
275 binding, beads were again washed three times with 500 μL of wash buffer. The pull-down
276 was then performed in a 100 μL reaction volume with final concentrations of 0.5 µM
277 GST-DCAF10 and 5 µM peptide. GST-DCAF10 or GST alone (as a control) was added
278 to the peptide-streptavidin beads and incubated on a rotator for 1 h at RT. After incubation,
279 the beads were washed three times with 500 μL of wash buffer and resuspended in 4x
280 Laemmli buffer. 1/5 of the input (GST-DCAF10 and GST) and 9/10 of the sample were
281 loaded on a 10% SDS gel and blotted with anti-GST and anti-DCAF10 antibodies, while
282 1/10 was loaded on a 15% SDS gel and blotted with anti-streptavidin antibody to assess
283 equal peptide loading.
285 Streptavidin Sepharose High Performance, GE Healthcare, Chicago, IL, USA) were used.
286 After washing with a high salt wash buffer without detergents (125 mM Tris-HCl pH 7.4,
287 400 mM NaCl), an excess of peptides was added and incubated for 30 min at RT. For each
288 reaction, 10 µL of slurry beads were used. After peptide-binding, beads were again
289 washed once with a high salt wash buffer without detergents and twice with binding buffer
290 without detergents (125 mM Tris-HCl pH 7.4, 150 mM NaCl). The pull-downs were
291 performed in a 100 μL reaction volume in binding buffer without detergents with a final
292 concentration of 0.5 µM GST-DCAF10 and incubated rotating for 1 h at RT. After
293 incubation, the beads were washed five times with 500 μL of high salt wash buffer without […]

Which “Binding to GST-DCAF10 (in words)” value (listed as Lyn Nt-free) does the source give for “GCIKSKGKDSKK [Nt-free Lyn, Nt-peptide of Lyn (aa 1–10 + KKK-biotin), Nt-free]” here?
The value was “bound only weakly”.

And the “Nt-free reduction compared to Nt-Ac” value?
Its value is 88.5 ± 14.7%.

How did the “Binding to GST-DCAF10 (in words)” value turn out when “GCVQCKDKEAKK [Nt-free Fyn, Nt-peptide of Fyn, Nt-free]” was run?
The value was “bound only weakly”.

What about the “Nt-free reduction compared to Nt-Ac” value of the same sequence?
The value was 82.5 ± 10.8%.

How did the “Binding to GST-DCAF10 (in words)” value (listed as Nt-acetylated Lyn) turn out when “GCIKSKGKDSKK [Ac-Lyn, Nt-peptide of Lyn (aa 1–10 + KKK-biotin), Nt-acetylated]” was run?
The value was “bound robustly to GST-DCAF10”.

With “GSNKSKPKDAKK [Ac-Src, Nt-peptide of Src, Nt-acetylated]” as the sequence, how does the “Lower binding in pull-downs” value (compared with Lyn and Fyn) read?
The value was ~ 30%.
